From ChEMBL document CHEMBL4330132, “5-Keto-3-cyano-2,4-diaminothiophenes as selective maternal embryonic leucine zipper kinase inhibitors” (Bioorg Med Chem Lett, 2019) come the findings set out here.

In assay [1] the test system is Tyrosine-protein kinase ABL1 (Homo sapiens), P00519 [Q252H]. Nature of the assay: Binding affinity to human phosphorylated ABL1 Q252H mutant expressed in mammalian expression system assessed as residual binding level at 1 uM by Kinomescan method relative to control.
Assay [2] has as its target Aurora kinase C (Homo sapiens) (UniProt Q9UQB9). Nature of the assay: Binding affinity to wild-type human full length AURKC (M1 to S275 residues) expressed in bacterial expression system assessed as residual binding level at 1 uM by Kinomescan method relative to control.
Assay [3] deals with Peripheral plasma membrane protein CASK (Homo sapiens) (UniProt O14936). Nature of the assay: Binding affinity to wild-type human partial length CASK (M1 to H315 residues) expressed in mammalian expression system assessed as residual binding level at 1 uM by Kinomescan method relative to control.
The target of assay [4] is Cyclin-dependent kinase 3 (Homo sapiens) (UniProt Q00526). Put plainly: Binding affinity to wild-type human full length CDK3 (M1 to H305 residues) expressed in bacterial expression system assessed as residual binding level at 1 uM by Kinomescan method relative to control.
Cyclin-dependent kinase 3 (Homo sapiens), sequence (Q00526 whole entry, looked up, the tested form may be a part): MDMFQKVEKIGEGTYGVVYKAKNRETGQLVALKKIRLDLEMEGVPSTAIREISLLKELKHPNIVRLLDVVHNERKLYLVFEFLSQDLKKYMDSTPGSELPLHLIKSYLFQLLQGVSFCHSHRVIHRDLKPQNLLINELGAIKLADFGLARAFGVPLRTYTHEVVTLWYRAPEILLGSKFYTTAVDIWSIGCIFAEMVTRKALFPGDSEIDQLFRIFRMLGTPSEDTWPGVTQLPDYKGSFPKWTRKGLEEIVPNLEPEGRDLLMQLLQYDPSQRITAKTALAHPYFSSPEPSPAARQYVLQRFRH
In assay [5] the target is Cyclin-dependent kinase 9 (Homo sapiens) (UniProt P50750). Put plainly: Binding affinity to wild-type human full length CDK9 (M1 to F372 residues) expressed in bacterial expression system assessed as residual binding level at 1 uM by Kinomescan method relative to control.
Cyclin-dependent kinase 9 (Homo sapiens), sequence (P50750 whole entry, the tested form may be a part): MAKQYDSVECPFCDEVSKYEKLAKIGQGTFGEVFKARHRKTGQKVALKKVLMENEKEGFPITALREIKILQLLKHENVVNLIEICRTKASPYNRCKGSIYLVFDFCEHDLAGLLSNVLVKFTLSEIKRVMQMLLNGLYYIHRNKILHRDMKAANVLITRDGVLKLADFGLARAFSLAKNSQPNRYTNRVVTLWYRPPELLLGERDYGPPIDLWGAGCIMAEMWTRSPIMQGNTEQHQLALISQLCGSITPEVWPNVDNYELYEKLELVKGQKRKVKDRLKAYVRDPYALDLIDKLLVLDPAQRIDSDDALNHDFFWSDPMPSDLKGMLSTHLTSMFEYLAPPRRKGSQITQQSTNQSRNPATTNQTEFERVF
Assay [6] addresses Dual specificity protein kinase CLK4 (Homo sapiens) (UniProt Q9HAZ1). Put plainly: Binding affinity to wild-type human partial length CLK4 (R135 to K481 residues) expressed in bacterial expression system assessed as residual binding level at 1 uM by Kinomescan method relative to control.
In assay [7] the target is Death-associated protein kinase 1 (Homo sapiens) (UniProt P53355). Put plainly: Binding affinity to wild-type human partial length DAPK1 (M1 to F296 residues) expressed in bacterial expression system assessed as residual binding level at 1 uM by Kinomescan method relative to control.
Assay [8] has as its target Dual specificity tyrosine-phosphorylation-regulated kinase 1A (Homo sapiens) (UniProt Q13627). Put plainly: Binding affinity to wild-type human partial length DYRK1A (H129 to S509 residues) expressed in mammalian expression system assessed as residual binding level at 1 uM by Kinomescan method relative to control.
For assay [9], the system named is Epidermal growth factor receptor (Homo sapiens), P00533 [L861Q]. Nature of the assay: Binding affinity to human partial length EGFR L861Q mutant (R669 to V1011 residues) expressed in bacterial expression system assessed as residual binding level at 1 uM by Kinomescan method relative to control.
Assay [10] concerns the target Ephrin type-B receptor 2 (Homo sapiens) (UniProt P29323). Put plainly: Binding affinity to wild-type human partial length EPHB2 (I597 to L902 residues) expressed in bacterial expression system assessed as residual binding level at 1 uM by Kinomescan method relative to control.
Assay [11] deals with Fibroblast growth factor receptor 1 (Homo sapiens) (UniProt P11362). Nature of the assay: Binding affinity to wild-type human partial length FGFR1 (P357 to V669 residues) expressed in bacterial expression system assessed as residual binding level at 1 uM by Kinomescan method relative to control.
Fibroblast growth factor receptor 1 (Homo sapiens), sequence (P11362 22-822 limits assumed): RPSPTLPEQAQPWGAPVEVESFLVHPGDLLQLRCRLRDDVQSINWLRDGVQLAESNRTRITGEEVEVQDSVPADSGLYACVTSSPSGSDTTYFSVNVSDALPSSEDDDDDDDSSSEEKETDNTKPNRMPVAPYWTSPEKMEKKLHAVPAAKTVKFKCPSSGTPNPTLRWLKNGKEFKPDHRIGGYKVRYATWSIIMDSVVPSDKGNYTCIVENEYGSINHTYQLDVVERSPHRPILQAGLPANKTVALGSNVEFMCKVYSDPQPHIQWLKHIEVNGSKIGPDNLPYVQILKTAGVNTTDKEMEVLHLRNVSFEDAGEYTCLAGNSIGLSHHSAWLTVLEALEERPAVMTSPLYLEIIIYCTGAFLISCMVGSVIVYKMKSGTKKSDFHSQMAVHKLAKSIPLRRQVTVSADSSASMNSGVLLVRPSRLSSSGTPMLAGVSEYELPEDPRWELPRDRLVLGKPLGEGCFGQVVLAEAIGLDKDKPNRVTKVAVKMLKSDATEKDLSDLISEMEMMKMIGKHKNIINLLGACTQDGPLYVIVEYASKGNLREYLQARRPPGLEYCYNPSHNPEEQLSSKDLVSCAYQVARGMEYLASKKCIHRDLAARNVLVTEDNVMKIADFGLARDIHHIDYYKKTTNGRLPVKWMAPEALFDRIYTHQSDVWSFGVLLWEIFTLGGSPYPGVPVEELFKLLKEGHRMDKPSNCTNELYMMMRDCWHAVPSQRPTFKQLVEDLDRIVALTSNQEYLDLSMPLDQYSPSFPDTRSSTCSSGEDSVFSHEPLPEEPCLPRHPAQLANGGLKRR
Assay [12] has as its target Fibroblast growth factor receptor 4 (Homo sapiens) (UniProt P22455). Nature of the assay: Binding affinity to wild-type human partial length FGFR4 (G402 to E713 residues) expressed in bacterial expression system assessed as residual binding level at 1 uM by Kinomescan method relative to control.
The subject of assay [13] is Receptor-type tyrosine-protein kinase FLT3 (Homo sapiens), P36888 [K663Q]. Put plainly: Binding affinity to human partial length FLT3 K663Q mutant (V592 to Y969 residues) expressed in bacterial expression system assessed as residual binding level at 1 uM by Kinomescan method relative to control.
Assay [14] addresses Tyrosine-protein kinase JAK3 (Homo sapiens) (UniProt P52333). Nature of the assay: Binding affinity to wild-type human partial length JAK3 JH1 catalytic domain (I781 to S1124 residues) expressed in mammalian expression system assessed as residual binding level at 1 uM by Kinomescan method relative to control.
The target of assay [15] is LIM domain kinase 1 (Homo sapiens) (UniProt P53667). Put plainly: Binding affinity to wild-type human full length LIMK1 (M1 to D647 residues) expressed in bacterial expression system assessed as residual binding level at 1 uM by Kinomescan method relative to control.
The target in assay [16] is Dual specificity mitogen-activated protein kinase kinase 4 (Homo sapiens) (UniProt P45985). Put plainly: Binding affinity to wild-type human partial length MEK4 (S84 to D399 residues) expressed in mammalian expression system assessed as residual binding level at 1 uM by Kinomescan method relative to control.
Dual specificity mitogen-activated protein kinase kinase 4 (Homo sapiens), sequence (P45985 whole entry, the tested form may be a part): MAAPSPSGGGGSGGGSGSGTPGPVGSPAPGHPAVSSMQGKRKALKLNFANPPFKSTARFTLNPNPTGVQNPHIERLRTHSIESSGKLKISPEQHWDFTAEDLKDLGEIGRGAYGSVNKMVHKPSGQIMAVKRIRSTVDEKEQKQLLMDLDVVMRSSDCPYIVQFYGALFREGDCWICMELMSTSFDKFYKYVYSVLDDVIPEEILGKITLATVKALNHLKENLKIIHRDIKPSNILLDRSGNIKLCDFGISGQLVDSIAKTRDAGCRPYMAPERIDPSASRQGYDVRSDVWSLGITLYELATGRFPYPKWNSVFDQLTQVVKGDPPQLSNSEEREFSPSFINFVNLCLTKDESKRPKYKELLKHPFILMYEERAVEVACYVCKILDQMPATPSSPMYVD
The target in assay [17] is Phosphatidylinositol 4-phosphate 3-kinase C2 domain-containing subunit beta (Homo sapiens) (UniProt O00750). Put plainly: Binding affinity to wild-type human partial length PIK3C2B (M1 to L1634 residues) expressed in mammalian expression system assessed as residual binding level at 1 uM by Kinomescan method relative to control.
Phosphatidylinositol 4-phosphate 3-kinase C2 domain-containing subunit beta (Homo sapiens), sequence (O00750 whole entry, the tested form may be a part, canonical isoform): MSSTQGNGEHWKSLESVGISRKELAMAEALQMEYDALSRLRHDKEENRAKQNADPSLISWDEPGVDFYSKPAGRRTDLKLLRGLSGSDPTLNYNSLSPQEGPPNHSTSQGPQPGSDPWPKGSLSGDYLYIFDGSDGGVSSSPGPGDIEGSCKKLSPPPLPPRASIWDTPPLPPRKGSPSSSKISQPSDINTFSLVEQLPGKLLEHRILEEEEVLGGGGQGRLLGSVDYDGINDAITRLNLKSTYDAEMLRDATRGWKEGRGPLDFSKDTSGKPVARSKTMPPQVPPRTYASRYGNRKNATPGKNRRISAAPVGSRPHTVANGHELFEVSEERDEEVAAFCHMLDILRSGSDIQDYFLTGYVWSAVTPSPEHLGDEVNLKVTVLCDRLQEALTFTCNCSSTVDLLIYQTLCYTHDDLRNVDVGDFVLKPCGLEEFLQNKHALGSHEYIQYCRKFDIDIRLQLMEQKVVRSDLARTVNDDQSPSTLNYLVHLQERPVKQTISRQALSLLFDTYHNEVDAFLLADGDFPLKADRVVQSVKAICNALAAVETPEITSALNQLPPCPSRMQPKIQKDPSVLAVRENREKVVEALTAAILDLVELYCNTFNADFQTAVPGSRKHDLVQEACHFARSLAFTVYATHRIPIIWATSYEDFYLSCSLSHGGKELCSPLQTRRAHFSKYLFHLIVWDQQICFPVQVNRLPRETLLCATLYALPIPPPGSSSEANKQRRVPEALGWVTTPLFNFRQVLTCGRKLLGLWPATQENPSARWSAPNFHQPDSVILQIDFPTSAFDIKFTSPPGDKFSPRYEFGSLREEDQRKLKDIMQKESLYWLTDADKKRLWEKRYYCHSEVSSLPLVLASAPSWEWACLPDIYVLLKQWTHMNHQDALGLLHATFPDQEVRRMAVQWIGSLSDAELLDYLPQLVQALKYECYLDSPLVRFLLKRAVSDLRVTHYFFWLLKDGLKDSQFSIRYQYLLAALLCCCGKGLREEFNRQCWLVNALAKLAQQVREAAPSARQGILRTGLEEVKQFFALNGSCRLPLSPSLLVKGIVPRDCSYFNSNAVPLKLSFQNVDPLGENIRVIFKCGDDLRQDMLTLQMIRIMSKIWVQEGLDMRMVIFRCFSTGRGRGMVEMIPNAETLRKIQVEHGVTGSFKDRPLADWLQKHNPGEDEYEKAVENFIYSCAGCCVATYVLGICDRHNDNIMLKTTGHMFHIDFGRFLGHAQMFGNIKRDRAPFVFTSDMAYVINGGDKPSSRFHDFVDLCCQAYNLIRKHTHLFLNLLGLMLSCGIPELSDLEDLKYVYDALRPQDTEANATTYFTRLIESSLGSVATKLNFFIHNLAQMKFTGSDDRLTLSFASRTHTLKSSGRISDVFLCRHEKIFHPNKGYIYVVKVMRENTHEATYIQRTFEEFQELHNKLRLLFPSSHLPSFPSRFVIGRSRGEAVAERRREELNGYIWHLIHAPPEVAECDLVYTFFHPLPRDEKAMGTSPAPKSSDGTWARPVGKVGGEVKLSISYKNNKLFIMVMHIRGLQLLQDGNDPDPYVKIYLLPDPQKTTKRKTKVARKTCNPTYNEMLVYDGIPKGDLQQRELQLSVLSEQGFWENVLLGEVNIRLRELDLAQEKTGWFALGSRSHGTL
The subject of assay [18] is Phosphatidylinositol 4,5-bisphosphate 3-kinase catalytic subunit alpha isoform (Homo sapiens), P42336 [M1043I]. Put plainly: Binding affinity to human partial length PIK3CA M1043I mutant (R108 to N1068 residues) expressed in mammalian expression system assessed as residual binding level at 1 uM by Kinomescan method relative to control.
The target in assay [19] is Serine/threonine-protein kinase N1 (Homo sapiens) (UniProt Q16512). Put plainly: Binding affinity to wild-type human partial length PKN1 (E598 to C948 residues) expressed in bacterial expression system assessed as residual binding level at 1 uM by Kinomescan method relative to control.
For assay [20], the target named is Proto-oncogene tyrosine-protein kinase ROS (Homo sapiens) (UniProt P08922). Put plainly: Binding affinity to wild-type human partial length ROS1 (A1921 to N2240 residues) expressed in bacterial expression system assessed as residual binding level at 1 uM by Kinomescan method relative to control.
The target in assay [21] is SRSF protein kinase 3 (Homo sapiens) (UniProt Q9UPE1). Put plainly: Binding affinity to wild-type human partial length SRPK3 (P41 to P567 residues) expressed in bacterial expression system assessed as residual binding level at 1 uM by Kinomescan method relative to control.
SRSF protein kinase 3 (Homo sapiens), sequence (Q9UPE1 whole entry, the tested form may be a part): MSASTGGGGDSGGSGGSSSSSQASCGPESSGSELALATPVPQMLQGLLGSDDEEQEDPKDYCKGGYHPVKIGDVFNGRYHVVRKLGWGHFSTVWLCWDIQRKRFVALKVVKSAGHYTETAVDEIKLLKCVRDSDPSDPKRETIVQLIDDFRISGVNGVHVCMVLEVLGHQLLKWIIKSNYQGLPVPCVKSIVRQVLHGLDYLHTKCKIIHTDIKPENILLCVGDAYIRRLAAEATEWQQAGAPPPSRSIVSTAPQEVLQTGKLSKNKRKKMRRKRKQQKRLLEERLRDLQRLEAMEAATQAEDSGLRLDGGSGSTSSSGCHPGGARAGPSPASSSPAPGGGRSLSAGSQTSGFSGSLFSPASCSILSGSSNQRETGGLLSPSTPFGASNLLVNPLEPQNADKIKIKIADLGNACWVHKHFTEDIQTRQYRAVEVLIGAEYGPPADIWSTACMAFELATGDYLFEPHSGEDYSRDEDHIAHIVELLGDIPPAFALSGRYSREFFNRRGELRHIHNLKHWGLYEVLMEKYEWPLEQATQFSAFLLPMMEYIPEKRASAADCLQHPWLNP
The target of assay [22] is Serine/threonine-protein kinase 16 (Homo sapiens) (UniProt O75716). Nature of the assay: Binding affinity to wild-type human partial length STK16 (G11 to I305 residues) expressed in bacterial expression system assessed as residual binding level at 1 uM by Kinomescan method relative to control.
Assay [23] addresses TGF-beta receptor type-1 (Homo sapiens) (UniProt P36897). Put plainly: Binding affinity to wild-type human partial length TGFBR1 (D179 to M503 residues) expressed in bacterial expression system assessed as residual binding level at 1 uM by Kinomescan method relative to control.
Assay [24] has as its target Angiopoietin-1 receptor (Homo sapiens) (UniProt Q02763). Nature of the assay: Binding affinity to wild-type human partial length TIE2 (N804 to T1112 residues) expressed in bacterial expression system assessed as residual binding level at 1 uM by Kinomescan method relative to control.

Aurora kinase C (Homo sapiens), sequence (Q9UQB9 whole entry, the tested form may be a part): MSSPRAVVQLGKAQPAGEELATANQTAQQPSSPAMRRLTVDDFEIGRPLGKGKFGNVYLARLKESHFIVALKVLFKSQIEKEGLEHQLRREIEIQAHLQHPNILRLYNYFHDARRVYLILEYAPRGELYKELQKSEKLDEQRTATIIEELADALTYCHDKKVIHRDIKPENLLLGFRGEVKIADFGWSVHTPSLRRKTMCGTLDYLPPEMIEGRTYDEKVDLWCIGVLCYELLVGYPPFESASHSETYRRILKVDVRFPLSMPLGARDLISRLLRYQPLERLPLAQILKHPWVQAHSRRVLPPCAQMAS
Dual specificity protein kinase CLK4 (Homo sapiens), sequence (Q9HAZ1 whole entry, looked up, the tested form may be a part): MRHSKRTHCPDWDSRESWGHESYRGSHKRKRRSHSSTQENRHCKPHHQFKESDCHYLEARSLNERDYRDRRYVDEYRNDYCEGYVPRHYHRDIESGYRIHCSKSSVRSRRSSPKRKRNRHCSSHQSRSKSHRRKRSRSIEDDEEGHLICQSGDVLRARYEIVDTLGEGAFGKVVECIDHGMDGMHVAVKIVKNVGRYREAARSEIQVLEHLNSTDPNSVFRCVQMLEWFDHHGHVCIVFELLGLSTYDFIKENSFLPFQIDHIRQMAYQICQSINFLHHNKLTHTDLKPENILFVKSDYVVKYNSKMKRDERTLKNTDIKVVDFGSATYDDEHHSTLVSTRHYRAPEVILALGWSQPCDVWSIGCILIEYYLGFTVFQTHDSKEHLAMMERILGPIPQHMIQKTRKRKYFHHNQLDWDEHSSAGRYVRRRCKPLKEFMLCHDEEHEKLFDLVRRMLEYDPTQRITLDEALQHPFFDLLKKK

With `CC(C)Nc1sc(C(=O)c2ccc(Cl)s2)c(N)c1C#N`, the Activity in [1] worked out at 100%; in assay [2] it was 100%; in assay [3] it was 100%; in assay [4], 89%; in assay [5], 83%; in [6], 88%. The Activity amounted to 100% in assay [7]; 100% in [8]; 96% in [9]; 79% in assay [10]; 70% in assay [11]; 74% in assay [12]. In addition, the Activity in assay [13] is 96%; in assay [14], 80%; in [15], 55%; in assay [16] it was 82%; in assay [17], 100%; in assay [18] it was 97%. Moreover, the Activity in assay [19] came out at 56%; in assay [20], 82%; in [21], 96%; in assay [22], 85%; in assay [23], 100%; in [24] it was 96%.
